Source: patent US11370774B2, “Substituted benzofuran, benzopyrrole, benzothiophene, and structurally related complement inhibitors” (BioCryst Pharmaceuticals, Inc., priority 2018, dated 2022)
pIC50: −log10 of the molar value.

Target: Factor D (Homo sapiens (Human), UniProt P00746)
Test: Factor D esterolytic assay (Z-Lys-SBzl substrate, DTNB, 405 nm)
Assay type: biochemical
Conditions: Z-Lys-SBzl 1.29 mM, pH 7.5, 10% DMSO, tested a minimum of three times, read-out: Measured Ki (IC50) Value for Compounds: IC50
Outline: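 Human Factor D ([…]) with 1.29 mM Z-Lys-SBzl in 100 mM HEPES, 500 mM NaCl, pH 7.5, 10% DMSO; substrate added immediately or after room-temperature preincubation. Released thiol reacted with DTNB, rate followed at 405 nm for 600 sec, 690 nm background subtracted. IC50 from percent inhibition versus uninhibited rate, n≥3.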

Sequence of Factor D (P00746 26-253): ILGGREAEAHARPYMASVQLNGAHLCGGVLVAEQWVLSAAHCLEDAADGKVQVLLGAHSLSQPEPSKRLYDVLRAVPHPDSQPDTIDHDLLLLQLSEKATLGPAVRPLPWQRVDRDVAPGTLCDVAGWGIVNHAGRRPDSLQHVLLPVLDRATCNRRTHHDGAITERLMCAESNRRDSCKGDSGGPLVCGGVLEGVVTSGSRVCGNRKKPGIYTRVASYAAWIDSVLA

SMILES	pIC50
NCc1cccc(-c2cc(COc3ccccc3CC(=O)O)cc3cc(CNC(=O)c4ccccc4)oc23)c1 [Compound 294f, 2-(2-((7-(3-(aminomethyl)phenyl)-2-(benzamidomethyl)benzofuran-5-yl)methoxy)phenyl)acetic acid]	> 6.00
N#Cc1cccc(C(=O)NCc2cc3cc(COc4ccccc4CC(=O)O)cc(-c4cccc(CN)c4)c3o2)c1 [Compound 295c, 2-(2-((7-(3-(aminomethyl)phenyl)-2-((3-cyanobenzamido)methyl)benzofuran-5-yl)methoxy)phenyl)acetic acid]	> 6.00
NCc1cccc(-c2cc(COc3ccccc3CC(=O)O)cc3cc(CNC(=O)Cc4ccccc4)oc23)c1 [Compound 296c, 2-(2-((7-(3-(aminomethyl)phenyl)-2-((2-phenylacetamido)methyl)benzofuran-5-yl)methoxy)phenyl)acetic acid]	> 6.00
NCc1cccc(-c2cc(COc3ccccc3CC(=O)O)cc3cc(CNC(=O)c4ccc(F)cc4F)oc23)c1 [Compound 297c, 2-(2-((7-(3-(aminomethyl)phenyl)-2-((2,4-difluorobenzamido)methyl)benzofuran-5-yl)methoxy)phenyl)acetic acid]	> 6.00
NCc1cccc(-c2cc(COc3cc4occc4cc3CC(=O)O)cc3ccoc23)c1 [Compound 298f, 2-(6-((7-(3-(aminomethyl)phenyl)benzofuran-5-yl)methoxy)benzofuran-5-yl)acetic acid]	> 6.00
Cc1ccc(CC(=O)O)c(OCc2cc(-c3cccc(CN)c3)c3oc(F)cc3c2)c1 [Compound 299c, 2-(2-((7-(3-(aminomethyl)phenyl)-2-fluorobenzofuran-5-yl)methoxy)-4-methylphenyl)acetic acid]	> 6.00
NCc1nccc(-c2cc(COc3ccccc3CC(=O)O)cc3cc(F)oc23)c1F [Compound 300c, 2-(2-((7-(2-(aminomethyl)-3-fluoropyridin-4-yl)-2-fluorobenzofuran-5-yl)methoxy)phenyl)acetic acid]	> 6.00
NCc1cc(-c2cc(COc3ccccc3CC(=O)O)cc3cc(F)oc23)ccn1 [Compound 301b, 2-(2-((7-(2-(aminomethyl)pyridin-4-yl)-2-fluorobenzofuran-5-yl)methoxy)phenyl)acetic acid]	> 6.00
NCc1cccc(-c2cc(COc3ccccc3CC(=O)O)cc3cc(COCc4cccnc4)oc23)c1 [Compound 302f, 2-(2-((7-(3-(aminomethyl)phenyl)-2-((pyridin-3-ylmethoxy)methyl)benzofuran-5-yl)methoxy)phenyl)acetic acid]	> 6.00
COc1ccc(CC(=O)O)c(OCc2cc(-c3cccc(CN)c3)c3occc3c2)c1 [Compound 303g, 2-(2-((7-(3-(aminomethyl)phenyl)benzofuran-5-yl)methoxy)-4-methoxyphenyl)acetic acid]	> 6.00
Cc1ccc(CC(=O)O)c(OCc2cc(-c3cccc(CN)c3F)c3occc3c2)c1C [Compound 304b, 2-(2-((7-(3-(aminomethyl)-2-fluorophenyl)benzofuran-5-yl)methoxy)-3,4-dimethylphenyl)acetic acid]	> 6.00
Cc1ccc(CC(=O)O)c(OCc2cc(-c3ccnc(CN)c3F)c3occc3c2)c1C [Compound 305d, 2-(2-((7-(2-(aminomethyl)-3-fluoropyridin-4-yl)benzofuran-5-yl)methoxy)-3,4-dimethylphenyl)acetic acid]	> 6.00
CCN(CC)c1ccc(CC(=O)O)c(OCc2cc(-c3cccc(CN)c3)c3occc3c2)c1 [Compound 306f, 2-(2-((7-(3-(aminomethyl)phenyl)benzofuran-5-yl)methoxy)-4-(diethylamino)phenyl)acetic acid]	> 6.00
CC(C)c1ccc(CC(=O)O)c(OCc2cc(-c3cccc(CN)c3F)c3occc3c2)c1 [Compound 307f, 2-(2-((7-(3-(aminomethyl)-2-fluorophenyl)benzofuran-5-yl)methoxy)-4-isopropylphenyl)acetic acid]	> 6.00
CC(C)(C)c1cc(OCc2cc(-c3cccc(CN)c3)c3occc3c2)c(CC(=O)O)cc1Cl [Compound 308h, 2-(2-((7-(3-(aminomethyl)phenyl)benzofuran-5-yl)methoxy)-4-(tert-butyl)-5-chlorophenyl)acetic acid]	> 6.00
COCc1cc2cc(COc3cc(C(N)=O)ccc3CC(=O)O)cc(-c3cccc(CN)c3)c2o1 [Compound 309h, 2-(2-((7-(3-(aminomethyl)phenyl)-2-(methoxymethyl)benzofuran-5-yl)methoxy)-4-carbamoylphenyl)acetic acid]	> 6.00
NCc1cc(-c2cc(COc3ccccc3CC(=O)O)cc3ccsc23)ccn1 [Compound 310c, 2-(2-((7-(2-(aminomethyl)pyridin-4-yl)benzo[b]thiophen-5-yl)methoxy)phenyl)acetic acid]	> 6.00
NCc1cccc(-c2cc(COc3ccccc3Cc3nn[nH]n3)cc3ccoc23)c1 [Compound 311b, (3-(5-((2-((2H-tetrazol-5-yl)methyl)phenoxy)methyl)benzofuran-7-yl)phenyl)methanamine]	< 5.00

Results, then the molecule that gave them:

pIC50	SMILES
> 6.00	CC(C)c1ccc(CC(=O)O)c(OCc2cc(-c3cccc(CN)c3)c3occc3c2)c1 [Compound 312b, 2-(2-((7-(3-(aminomethyl)phenyl)benzofuran-5-yl)methoxy)-4-isopropylphenyl)acetic acid]
> 6.00	NCc1cccc(-c2cc(COc3cc(-c4ccoc4)ccc3CC(=O)O)cc3ccoc23)c1 [Compound 313c, 2-(2-((7-(3-(aminomethyl)phenyl)benzofuran-5-yl)methoxy)-4-(furan-3-yl)phenyl)acetic acid]
> 6.00	Cc1cccc(OCc2cc(-c3cccc(CN)c3)c3occc3c2)c1CC(=O)O [Compound 314f, 2-(2-((7-(3-(aminomethyl)phenyl)benzofuran-5-yl)methoxy)-6-methylphenyl)acetic acid]
> 6.00	CCc1ccc(CC(=O)O)c(OCc2cc(-c3cccc(CN)c3F)c3occc3c2)c1 [Compound 315f, 2-(2-((7-(3-(aminomethyl)-2-fluorophenyl)benzofuran-5-yl)methoxy)-4-ethylphenyl)acetic acid]
> 6.00	CCc1ccc(CC(=O)O)c(OCc2cc(-c3cccc(CN)c3)c3occc3c2)c1 [Compound 316b, 2-(2-((7-(3-(aminomethyl)phenyl)benzofuran-5-yl)methoxy)-4-ethylphenyl)acetic acid]
> 6.00	CC(C)(C)c1ccc(CC(=O)O)c(OCc2cc(-c3cccc(CN)c3)c3occc3c2)c1 [Compound 317f, 2-(2-((7-(3-(aminomethyl)phenyl)benzofuran-5-yl)methoxy)-4-(tert-butyl)phenyl)acetic acid]
> 6.00	NCc1cccc(-c2cc(COc3cc(-c4ccco4)ccc3CC(=O)O)cc3ccoc23)c1 [Compound 318c, 2-(2-((7-(3-(aminomethyl)phenyl)benzofuran-5-yl)methoxy)-4-(furan-2-yl)phenyl)acetic acid]
> 6.00	NCc1cccc(-c2cc(COc3cc(-c4cccnc4)ccc3CC(=O)O)cc3ccoc23)c1 [Compound 319c, 2-(2-((7-(3-(aminomethyl)phenyl)benzofuran-5-yl)methoxy)-4-(pyridin-3-yl)phenyl)acetic acid]
> 6.00	Cc1cc(-c2ccc(CC(=O)O)c(OCc3cc(-c4cccc(CN)c4)c4occc4c3)c2)ccn1 [Compound 320c, 2-(2-((7-(3-(aminomethyl)phenyl)benzofuran-5-yl)methoxy)-4-(2-methylpyridin-4-yl)phenyl)acetic acid]
> 6.00	COc1ccc(C(SC)C(=O)O)c(OCc2cc(-c3cccc(CN)c3)c3occc3c2)c1 (centres unmarked) [Compound 321f, 2-(2-((7-(3-(aminomethyl)phenyl)benzofuran-5-yl)methoxy)-4-methoxyphenyl)-2-(methylthio)acetic acid]
> 6.00	Cc1cc(-c2ccc(CC(=O)O)c(OCc3cc(-c4cccc(CN)c4)c4occc4c3)c2)cnc1F [Compound 322c, 2-(2-((7-(3-(aminomethyl)phenyl)benzofuran-5-yl)methoxy)-4-(6-fluoro-5-methylpyridin-3-yl)phenyl)acetic acid]
> 6.00	COc1ncc(-c2ccc(CC(=O)O)c(OCc3cc(-c4cccc(CN)c4)c4occc4c3)c2)cc1C [Compound 322d, 2-(2-((7-(3-(aminomethyl)phenyl)benzofuran-5-yl)methoxy)-4-(6-methoxy-5-methylpyridin-3-yl)phenyl)acetic acid]
> 6.00	NCc1cccc(-c2cc(COc3cc(-c4ccncc4)ccc3CC(=O)O)cc3ccoc23)c1 [Compound 323c, 2-(2-((7-(3-(aminomethyl)phenyl)benzofuran-5-yl)methoxy)-4-(pyridin-4-yl)phenyl)acetic acid]
> 6.00	N#Cc1ccc(-c2ccc(CC(=O)O)c(OCc3cc(-c4cccc(CN)c4)c4occc4c3)c2)s1 [Compound 324c, 2-(2-((7-(3-(aminomethyl)phenyl)benzofuran-5-yl)methoxy)-4-(5-cyanothiophen-2-yl)phenyl)acetic acid]
> 6.00	NCc1cccc(-c2cc(COc3cc(-c4ccc(C(=O)O)s4)ccc3CC(=O)O)cc3ccoc23)c1 [Compound 325a, 5-(3-((7-(3-(aminomethyl)phenyl)benzofuran-5-yl)methoxy)-4-(carboxymethyl)phenyl)thiophene-2-carboxylic acid]
> 6.00	NCc1cccc(-c2cc(COc3cccc(F)c3CC(=O)O)cc3ccoc23)c1 [Compound 328f, 2-(2-((7-(3-(aminomethyl)phenyl)benzofuran-5-yl)methoxy)-6-fluorophenyl)acetic acid]
> 6.00	NCc1cc(-c2cc(COc3ccc(F)cc3CC(=O)O)cc3ccoc23)ccn1 [Compound 329b, 2-(2-((7-(2-(aminomethyl)pyridin-4-yl)benzofuran-5-yl)methoxy)-5-fluorophenyl)acetic acid]
